From article PMC10600239, “Selective MCL-1 inhibitor ABBV-467 is efficacious in tumor models but is associated with cardiac troponin increases in patients” (Communications Medicine, 2023)

Test system: H929 cells
Experiment: Caspase-3/7 activation and viability (DRAQ7) over time by Incucyte
Type: cell-based, human
Protocol: Fig. 2 Apoptosis induced by ABBV-467 is mechanism based and induces cell death in MCL-1-dependent cell lines after short target engagement periods. H929 cells were treated with ABBV-467 in the presence or absence of the pan-caspase inhibitor z-VAD-fmk (50 µM) and the impact on caspase-3/7 activation (a), mitochondrial membrane potential (ΔΨm; b), and apoptosis (c) determined. Alternatively, BAK-deficient SKBR3 cells were treated with ABBV-467 for 24 h and the impact on cell viability compared with the parental cell line, determined by CellTiter-Glo. Inset depicts a western blot of BAK and BAX expression in SKBR3 cell variants using GAPDH as a loading control. Each of the 3 proteins were probed on separate blots (d). Data in (a–d) are presented as the mean ± standard error of the mean. H929 and AMO-1 cells were treated with ABBV-467 at the indicated concentrations and the impact on caspase-3/7 activation and viability (DRAQ7-positive) cells determined over time by Incucyte®. Data are presented as the mean ± standard deviation (e). H929 or AMO-1 cells were cultured in media containing 10% human serum and treated with ABBV-467 for the indicated contact times. Cells were subsequently washed 3 times with drug-free media and incubated in drug-free media for the remainder of the 24-h treatment period at 37 °C before cell viability was determined by CellTiter-Glo. Mean EC50 and EC90 values were determined from the resulting dose-response curves from at least 3 independent experiments, each assessed in quadruplicate, and depict the mean ± standard error of the mean. Presented ABBV-467 dose-response curves in H929 and AMO-1 cells were compiled from at least 3 independent experiments (f).

Cc1c(Cl)c2c(Cl)c(C)c1-c1c(-c3ccc(F)cc3)sc3ncnc(c13)O[C@@H](C(=O)O)Cc1cc(ccc1OCc1ccnc(-c3ccc(OC[C@H]4COCCO4)cc3)n1)OC[C@@H](CN1CCN(C)CC1)O2 [ABBV-467]
Caspase-3/-7 Activation (ABBV-467 0.01 nM, 0 hours): 232.365
Caspase-3/-7 Activation (ABBV-467 0.01 nM, 1 hours): 224.632
Caspase-3/-7 Activation (ABBV-467 0.01 nM, 2 hours): 270.553
Caspase-3/-7 Activation (ABBV-467 0.01 nM, 3 hours): 259.728
Caspase-3/-7 Activation (ABBV-467 0.01 nM, 4 hours): 277.62
Caspase-3/-7 Activation (ABBV-467 0.01 nM, 5 hours): 289.07
Caspase-3/-7 Activation (ABBV-467 0.01 nM, 6 hours): 301.552
Caspase-3/-7 Activation (ABBV-467 0.01 nM, 7 hours): 311.821
Caspase-3/-7 Activation (ABBV-467 0.01 nM, 8 hours): 334.669
Caspase-3/-7 Activation (ABBV-467 0.01 nM, 9 hours): 348.392
Caspase-3/-7 Activation (ABBV-467 0.01 nM, 10 hours): 365.28
Caspase-3/-7 Activation (ABBV-467 0.01 nM, 11 hours): 391.805
Caspase-3/-7 Activation (ABBV-467 0.01 nM, 12 hours): 438.261
Caspase-3/-7 Activation (ABBV-467 0.01 nM, 13 hours): 454.339
Caspase-3/-7 Activation (ABBV-467 0.01 nM, 14 hours): 484.741
Caspase-3/-7 Activation (ABBV-467 0.1 nM, 0 hours): 225.588
Caspase-3/-7 Activation (ABBV-467 0.1 nM, 1 hours): 235.59
Caspase-3/-7 Activation (ABBV-467 0.1 nM, 2 hours): 274.692
Caspase-3/-7 Activation (ABBV-467 0.1 nM, 3 hours): 258.216
Caspase-3/-7 Activation (ABBV-467 0.1 nM, 4 hours): 255.874
Caspase-3/-7 Activation (ABBV-467 0.1 nM, 5 hours): 269.765
Caspase-3/-7 Activation (ABBV-467 0.1 nM, 6 hours): 277.457
Caspase-3/-7 Activation (ABBV-467 0.1 nM, 7 hours): 313.21
Caspase-3/-7 Activation (ABBV-467 0.1 nM, 8 hours): 322.526
Caspase-3/-7 Activation (ABBV-467 0.1 nM, 9 hours): 349.891
Caspase-3/-7 Activation (ABBV-467 0.1 nM, 10 hours): 382.789
Caspase-3/-7 Activation (ABBV-467 0.1 nM, 11 hours): 408.8
Caspase-3/-7 Activation (ABBV-467 0.1 nM, 12 hours): 435.203
Caspase-3/-7 Activation (ABBV-467 0.1 nM, 13 hours): 463.242
Caspase-3/-7 Activation (ABBV-467 0.1 nM, 14 hours): 524.814
Caspase-3/-7 Activation (ABBV-467 1 nM, 0 hours): 207.355
Caspase-3/-7 Activation (ABBV-467 1 nM, 1 hours): 234.094
Caspase-3/-7 Activation (ABBV-467 1 nM, 2 hours): 278.959
Caspase-3/-7 Activation (ABBV-467 1 nM, 3 hours): 292.278
Caspase-3/-7 Activation (ABBV-467 1 nM, 4 hours): 394.898
Caspase-3/-7 Activation (ABBV-467 1 nM, 5 hours): 570.705
Caspase-3/-7 Activation (ABBV-467 1 nM, 6 hours): 716.626
Caspase-3/-7 Activation (ABBV-467 1 nM, 7 hours): 887.617
Caspase-3/-7 Activation (ABBV-467 1 nM, 8 hours): 1099.54
Caspase-3/-7 Activation (ABBV-467 1 nM, 9 hours): 1287.07
Caspase-3/-7 Activation (ABBV-467 1 nM, 10 hours): 1419.14
Caspase-3/-7 Activation (ABBV-467 1 nM, 11 hours): 1610.17
Caspase-3/-7 Activation (ABBV-467 1 nM, 12 hours): 1722.67
Caspase-3/-7 Activation (ABBV-467 1 nM, 13 hours): 1826.71
Caspase-3/-7 Activation (ABBV-467 1 nM, 14 hours): 1859.69
Caspase-3/-7 Activation (ABBV-467 10 nM, 0 hours): 233.175
Caspase-3/-7 Activation (ABBV-467 10 nM, 1 hours): 264.944
Caspase-3/-7 Activation (ABBV-467 10 nM, 2 hours): 553.515
Caspase-3/-7 Activation (ABBV-467 10 nM, 3 hours): 945.842
Caspase-3/-7 Activation (ABBV-467 10 nM, 4 hours): 1332.17
Caspase-3/-7 Activation (ABBV-467 10 nM, 5 hours): 1650.46
